Test results from ChEMBL document CHEMBL1201862, “PubChem BioAssay data set” (2004).
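The compound was tested at five concentrations on cells cultured in 96-well plates, with a 48-hour exposure period. GI50 = concentration required for 50% inhibition of growth.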 Calls of active or inactive are those of the source. Cut-off read from the data, not from the text of the source: active = GI50 up to about 1.1 µM and inactive = higher.

Legend:
Assay in all cases: growth of human tumour cells (NCI), 48 h
CAKI-1 = system: CAKI-1
CCRF-CEM = system: CCRF-CEM
COLO 205 = system: COLO 205
EKVX = system: EKVX
HL-60 = system: HL-60
HT-29 = system: HT-29
LOX IMVI = system: LOX IMVI
MOLT-4 = system: MOLT-4
NCI-H460 = system: NCI-H460
NCI-H522 = system: NCI-H522
OVCAR-3 = system: OVCAR-3
OVCAR-8 = system: OVCAR-8
SF-295 = system: SF-295
SK-MEL-2 = system: SK-MEL-2
SN12C = system: SN12C
SNB-19 = system: SNB-19
UO-31 = system: UO-31
TK-10 = system: TK-10

Measured: GI50

COc1ccc(-c2onc(-c3c(C)cc(C)cc3C)c2C2=NCCCN2)cc1
inactive: CAKI-1 13.6 µM | CCRF-CEM 35 µM | COLO 205 27.7 µM | EKVX 96.8 µM | HL-60 15.1 µM | HT-29 31.2 µM | LOX IMVI 43.3 µM | MOLT-4 41 µM | NCI-H460 32.1 µM | NCI-H522 14.3 µM | OVCAR-3 57 µM | OVCAR-8 58.9 µM | SF-295 22.8 µM | SK-MEL-2 36.1 µM | SN12C 50.8 µM | SNB-19 35.1 µM | UO-31 21.1 µM

O=C1[C@@H]2C(c3ccccc3[N+](=O)[O-])=NO[C@@H]2C(=O)N1c1ccc(Cc2ccc(N3C(=O)[C@H]4C(c5ccccc5[N+](=O)[O-])=NO[C@H]4C3=O)cc2)cc1
inactive: CAKI-1 > 100 µM | CCRF-CEM > 100 µM | COLO 205 > 100 µM | EKVX > 100 µM | HT-29 > 100 µM | LOX IMVI > 100 µM | MOLT-4 > 100 µM | NCI-H460 > 100 µM | NCI-H522 > 100 µM | OVCAR-3 > 100 µM | OVCAR-8 > 100 µM | SF-295 > 100 µM | SN12C > 100 µM | SNB-19 > 100 µM | TK-10 > 100 µM | UO-31 > 100 µM

COc1ccc(CC(=O)NCCc2ccc(OC)c(OC)c2OC)cc1
inactive: CCRF-CEM > 100 µM | EKVX > 100 µM | HT-29 > 100 µM | MOLT-4 > 100 µM | NCI-H460 > 100 µM | NCI-H522 > 100 µM | OVCAR-8 > 100 µM | SF-295 > 100 µM | SK-MEL-2 > 100 µM | SN12C > 100 µM | SNB-19 > 100 µM | TK-10 > 100 µM | UO-31 > 100 µM

O=C1OC(c2cccc(C(F)(F)F)c2)c2ccc3ccccc3c21 (stereo unspecified)
inactive: CAKI-1 > 10 µM | CCRF-CEM 9.06 µM | COLO 205 > 10 µM | EKVX > 10 µM | HL-60 5.5 µM | HT-29 > 10 µM | LOX IMVI 8.45 µM | MOLT-4 6.31 µM | NCI-H460 > 10 µM | NCI-H522 > 10 µM | OVCAR-3 > 10 µM | OVCAR-8 > 10 µM | SF-295 12.2 µM | SK-MEL-2 > 10 µM | SN12C > 10 µM | SNB-19 > 10 µM | TK-10 > 10 µM | UO-31 9.68 µM

NC(=S)N/C=C1\C(=O)Oc2ccccc2C1=O
inactive: CAKI-1 20.7 µM | CCRF-CEM > 100 µM | COLO 205 > 100 µM | EKVX > 100 µM | HL-60 > 100 µM | HT-29 > 100 µM | LOX IMVI > 100 µM | MOLT-4 > 100 µM | NCI-H460 > 100 µM | NCI-H522 69.2 µM | OVCAR-3 37.3 µM | OVCAR-8 56.5 µM | SF-295 > 100 µM | SK-MEL-2 22.6 µM | SN12C 37.2 µM | SNB-19 68.5 µM | TK-10 90.4 µM | UO-31 27.5 µM

OC12c3ccccc3C1CCCCCC21OCCCO1 (stereo unspecified)
inactive: CAKI-1 > 100 µM | CCRF-CEM > 100 µM | COLO 205 > 100 µM | HL-60 11.4 µM | HT-29 > 100 µM | LOX IMVI > 100 µM | MOLT-4 > 100 µM | NCI-H460 > 100 µM | NCI-H522 > 100 µM | OVCAR-3 > 100 µM | OVCAR-8 > 100 µM | SF-295 > 100 µM | SK-MEL-2 > 100 µM | SN12C > 100 µM | SNB-19 > 100 µM | TK-10 > 100 µM | UO-31 > 100 µM

CC1=CCC(C(C)(C)NC(=O)c2ccccc2)C/C1=N/O (stereo unspecified)
inactive: CCRF-CEM > 100 µM | COLO 205 > 100 µM | EKVX > 100 µM | HL-60 > 100 µM | HT-29 > 100 µM | LOX IMVI > 100 µM | MOLT-4 > 100 µM | NCI-H460 > 100 µM | NCI-H522 > 100 µM | OVCAR-3 > 100 µM | OVCAR-8 > 100 µM | SF-295 > 100 µM | SN12C > 100 µM | SNB-19 > 100 µM | TK-10 > 100 µM | UO-31 > 100 µM

O=S1(=O)OCCOS(=O)(=O)C1(Cl)Cl
inactive: CAKI-1 47 µM | CCRF-CEM 54.2 µM | COLO 205 > 100 µM | EKVX > 100 µM | HL-60 42 µM | HT-29 > 100 µM | LOX IMVI 61.4 µM | MOLT-4 42.2 µM | NCI-H522 > 100 µM | OVCAR-3 > 100 µM | OVCAR-8 > 100 µM | SF-295 46 µM | SK-MEL-2 > 100 µM | SN12C > 100 µM | SNB-19 91.4 µM | TK-10 > 100 µM | UO-31 99.8 µM

O=C(/N=N/c1ccc([N+](=O)[O-])cc1)NNc1ccc([N+](=O)[O-])cc1
inactive: CAKI-1 18.9 µM | CCRF-CEM 15.8 µM | HL-60 11.9 µM | HT-29 31.3 µM | LOX IMVI 11.2 µM | MOLT-4 11 µM | NCI-H460 19.6 µM | NCI-H522 17.7 µM | OVCAR-3 20.5 µM | OVCAR-8 17.2 µM | SK-MEL-2 13.3 µM | SN12C 13.3 µM | SNB-19 27 µM | TK-10 20.1 µM | UO-31 10.9 µM

COc1ccc(-c2nc(N)nc(-c3cc(C)ccc3O)c2Cl)cc1
inactive: CAKI-1 91.4 µM | CCRF-CEM > 100 µM | COLO 205 > 100 µM | EKVX 20.3 µM | HL-60 > 100 µM | HT-29 > 100 µM | LOX IMVI 58.9 µM | MOLT-4 > 100 µM | NCI-H460 38.3 µM | NCI-H522 26.2 µM | OVCAR-3 30.6 µM | OVCAR-8 43.2 µM | SF-295 60.1 µM | SN12C 76.7 µM | SNB-19 32.9 µM | TK-10 32.7 µM | UO-31 26.7 µM

CCCCCCC(/C=N/O)C(C)(O)CCC (stereo unspecified)
inactive: CAKI-1 > 100 µM | CCRF-CEM > 100 µM | COLO 205 > 100 µM | EKVX > 100 µM | HL-60 67.9 µM | HT-29 > 100 µM | LOX IMVI > 100 µM | MOLT-4 61.7 µM | NCI-H460 > 100 µM | NCI-H522 37.7 µM | OVCAR-3 > 100 µM | OVCAR-8 > 100 µM | SF-295 > 100 µM | SK-MEL-2 > 100 µM | SN12C > 100 µM | SNB-19 > 100 µM | TK-10 > 100 µM | UO-31 > 100 µM

Cn1c2c([N+](=O)[O-])cccc2c(=O)c2c(O)cc3c(c21)C=CC(C)(C)O3
inactive: CAKI-1 18.7 µM | CCRF-CEM 41 µM | COLO 205 44.8 µM | EKVX 6.59 µM | HL-60 16.6 µM | HT-29 23.4 µM | LOX IMVI 25.2 µM | MOLT-4 42.9 µM | NCI-H460 36.6 µM | NCI-H522 11.2 µM | OVCAR-8 29.6 µM | SF-295 24.1 µM | SK-MEL-2 35.9 µM | SN12C 52 µM | SNB-19 41.7 µM | TK-10 54.6 µM | UO-31 40.6 µM

COc1cc(/C=N\O[Si](C)(C)C(C)(C)C)ccc1O[Si](C)(C)C(C)(C)C
inactive: CAKI-1 > 100 µM | CCRF-CEM 42.9 µM | COLO 205 > 100 µM | EKVX > 100 µM | HL-60 37.8 µM | HT-29 47.3 µM | LOX IMVI 26.6 µM | MOLT-4 37.8 µM | NCI-H460 > 100 µM | OVCAR-3 22.3 µM | OVCAR-8 64.1 µM | SF-295 78.5 µM | SK-MEL-2 88.9 µM | SN12C > 100 µM | SNB-19 76.9 µM | TK-10 > 100 µM | UO-31 > 100 µM

COc1cc(C(C)c2cc3c(cc2OCCCCCOc2cc4c(cc2C(C)c2cc(OC)c(OC)c(OC)c2)OCO4)OCO3)cc(OC)c1OC (stereo unspecified)
inactive: CAKI-1 > 100 µM | CCRF-CEM > 100 µM | EKVX > 100 µM | HL-60 > 100 µM | HT-29 > 100 µM | LOX IMVI > 100 µM | MOLT-4 > 100 µM | NCI-H460 > 100 µM | NCI-H522 > 100 µM | OVCAR-3 > 100 µM | OVCAR-8 > 100 µM | SF-295 > 100 µM | SK-MEL-2 > 100 µM | SN12C > 100 µM | SNB-19 > 100 µM | UO-31 > 100 µM

CCOC(=O)CC1(C(=O)OCC)c2[nH]c3ccccc3c2CCN1Cc1ccccc1 (stereo unspecified)
inactive: CAKI-1 31 µM | CCRF-CEM 23.7 µM | COLO 205 16.7 µM | EKVX 21.8 µM | HL-60 21.6 µM | HT-29 14.4 µM | LOX IMVI 18.5 µM | MOLT-4 13.5 µM | NCI-H460 19 µM | NCI-H522 13.2 µM | OVCAR-3 14.1 µM | OVCAR-8 23.7 µM | SF-295 16.8 µM | SK-MEL-2 17.9 µM | SN12C 14.2 µM | SNB-19 38.4 µM | TK-10 31.2 µM | UO-31 18.4 µM

Cn1ccc2c(C(=O)c3ccccc3)cccc2c1=O
inactive: CAKI-1 68.2 µM | CCRF-CEM 32.7 µM | COLO 205 44.7 µM | EKVX > 100 µM | HL-60 24.9 µM | HT-29 44.2 µM | LOX IMVI 54.3 µM | MOLT-4 38 µM | NCI-H460 39.8 µM | NCI-H522 21.3 µM | OVCAR-3 36.8 µM | OVCAR-8 56 µM | SF-295 20.7 µM | SK-MEL-2 57.7 µM | SN12C 59.2 µM | TK-10 > 100 µM
